Source: ChEMBL document CHEMBL3045777, “Response of selected horseweed (Conyza canadensis (L.) Cronq.) populations to glyphosate” (2004)

Legend:
[1] = tested on: Erigeron canadensis; assay: Herbicidal activity against compound-resistant Conyza canadensis (horseweed) isolate 2 under greenhouse condition at 0.84 kg ae/ha measured 14 days post treatment relative to control; format: functional
[2] = tested on: Erigeron canadensis; assay: Herbicidal activity against compound-resistant Conyza canadensis (horseweed) isolate 1 under greenhouse condition at 0.84 kg ae/ha measured 14 days post treatment relative to control; format: functional
[3] = tested on: Erigeron canadensis; assay: Herbicidal activity against compound-resistant Conyza canadensis (horseweed) isolate 2 under greenhouse condition at 2.52 kg ae/ha measured 14 days post treatment relative to control; format: functional
[4] = tested on: Erigeron canadensis; assay: Herbicidal activity against compound-resistant Conyza canadensis (horseweed) isolate 2 under greenhouse condition at 0.45 kg ae/ha measured 7 days post treatment relative to control; format: functional
[5] = tested on: Erigeron canadensis; assay: Herbicidal activity against compound-resistant Conyza canadensis (horseweed) isolate 1 under greenhouse condition assessed as fresh weight at 3.36 kg ae/ha measured 21 days post treatment relative to untreated control
[6] = tested on: Erigeron canadensis; assay: Herbicidal activity against compound-sensitive Conyza canadensis (horseweed) under greenhouse condition at 0.45 kg ae/ha measured 21 days post treatment relative to control; format: functional
[7] = tested on: Erigeron canadensis; assay: Herbicidal activity against compound-resistant Conyza canadensis (horseweed) isolate 2 under greenhouse condition at 1.68 kg ae/ha measured 7 days post treatment relative to control; format: functional
[8] = tested on: Erigeron canadensis; assay: Herbicidal activity against compound-sensitive Conyza canadensis (horseweed) under greenhouse condition at 1.25 kg ae/ha measured 7 days post treatment relative to control; format: functional
[9] = tested on: Erigeron canadensis; assay: Herbicidal activity against compound-resistant Conyza canadensis (horseweed) isolate 2 under greenhouse condition at 9 kg ae/ha measured 21 days post treatment relative to control; format: functional
[10] = tested on: Erigeron canadensis; assay: Herbicidal activity against compound-resistant Conyza canadensis (horseweed) isolate 2 under greenhouse condition assessed as fresh weight at 9 kg ae/ha measured 21 days post treatment relative to untreated control
[11] = tested on: Erigeron canadensis; assay: Herbicidal activity against compound-resistant Conyza canadensis (horseweed) isolate 1 under greenhouse condition at 1.25 kg ae/ha measured 14 days post treatment relative to control; format: functional
[12] = tested on: Erigeron canadensis; assay: Herbicidal activity against compound-sensitive Conyza canadensis (horseweed) under greenhouse condition assessed as fresh weight at 9 kg ae/ha measured 21 days post treatment relative to untreated control
[13] = tested on: Erigeron canadensis; assay: Herbicidal activity against compound-resistant Conyza canadensis (horseweed) isolate 1 under greenhouse condition at 0.45 kg ae/ha measured 21 days post treatment relative to control; format: functional
[14] = tested on: Erigeron canadensis; assay: Herbicidal activity against compound-sensitive Conyza canadensis (horseweed) under greenhouse condition at 9 kg ae/ha measured 7 days post treatment relative to control; format: functional
[15] = tested on: Erigeron canadensis; assay: Herbicidal activity against compound-sensitive Conyza canadensis (horseweed) under greenhouse condition at 2.52 kg ae/ha measured 7 days post treatment relative to control; format: functional
[16] = tested on: Erigeron canadensis; assay: Herbicidal activity against compound-resistant Conyza canadensis (horseweed) isolate 2 under greenhouse condition at 9 kg ae/ha measured 7 days post treatment relative to control; format: functional
[17] = tested on: Erigeron canadensis; assay: Herbicidal activity against compound-resistant Conyza canadensis (horseweed) isolate 1 under greenhouse condition at 0.84 kg ae/ha measured 21 days post treatment relative to control; format: functional
[18] = tested on: Erigeron canadensis; assay: Herbicidal activity against compound-resistant Conyza canadensis (horseweed) isolate 2 under greenhouse condition assessed as fresh weight at 1.25 kg ae/ha measured 21 days post treatment relative to untreated control
[19] = tested on: Erigeron canadensis; assay: Herbicidal activity against compound-resistant Conyza canadensis (horseweed) isolate 2 under greenhouse condition at 3.36 kg ae/ha measured 7 days post treatment relative to control; format: functional
[20] = tested on: Erigeron canadensis; assay: Herbicidal activity against compound-sensitive Conyza canadensis (horseweed) under greenhouse condition assessed as fresh weight at 0.45 kg ae/ha measured 21 days post treatment relative to untreated control
[21] = tested on: Erigeron canadensis; assay: Herbicidal activity against compound-sensitive Conyza canadensis (horseweed) under greenhouse condition at 0.45 kg ae/ha measured 7 days post treatment relative to control; format: functional
[22] = tested on: Erigeron canadensis; assay: Herbicidal activity against compound-resistant Conyza canadensis (horseweed) isolate 1 under greenhouse condition assessed as fresh weight at 0.84 kg ae/ha measured 21 days post treatment relative to untreated control
[23] = tested on: Erigeron canadensis; assay: Herbicidal activity against compound-resistant Conyza canadensis (horseweed) isolate 2 under greenhouse condition assessed as fresh weight at 0.84 kg ae/ha measured 21 days post treatment relative to untreated control
[24] = tested on: Erigeron canadensis; assay: Herbicidal activity against compound-resistant Conyza canadensis (horseweed) isolate 1 under greenhouse condition at 9 kg ae/ha measured 21 days post treatment relative to control; format: functional
[25] = tested on: Erigeron canadensis; assay: Herbicidal activity against compound-resistant Conyza canadensis (horseweed) isolate 1 under greenhouse condition at 2.52 kg ae/ha measured 14 days post treatment relative to control; format: functional
[26] = tested on: Erigeron canadensis; assay: Herbicidal activity against compound-resistant Conyza canadensis (horseweed) isolate 2 under greenhouse condition at 2.52 kg ae/ha measured 21 days post treatment relative to control; format: functional
[27] = tested on: Erigeron canadensis; assay: Herbicidal activity against compound-resistant Conyza canadensis (horseweed) isolate 2 under greenhouse condition at 2.52 kg ae/ha measured 7 days post treatment relative to control; format: functional
[28] = tested on: Erigeron canadensis; assay: Herbicidal activity against compound-resistant Conyza canadensis (horseweed) isolate 2 under greenhouse condition at 1.68 kg ae/ha measured 14 days post treatment relative to control; format: functional
[29] = tested on: Erigeron canadensis; assay: Herbicidal activity against compound-resistant Conyza canadensis (horseweed) isolate 2 under greenhouse condition at 1.68 kg ae/ha measured 21 days post treatment relative to control; format: functional
[30] = tested on: Erigeron canadensis; assay: Herbicidal activity against compound-sensitive Conyza canadensis (horseweed) under greenhouse condition assessed as fresh weight at 0.84 kg ae/ha measured 21 days post treatment relative to untreated control
[31] = tested on: Erigeron canadensis; assay: Herbicidal activity against compound-sensitive Conyza canadensis (horseweed) under greenhouse condition at 1.68 kg ae/ha measured 14 days post treatment relative to control; format: functional
[32] = tested on: Erigeron canadensis; assay: Herbicidal activity against compound-resistant Conyza canadensis (horseweed) isolate 2 under greenhouse condition at 9 kg ae/ha measured 14 days post treatment relative to control; format: functional
[33] = tested on: Erigeron canadensis; assay: Herbicidal activity against compound-resistant Conyza canadensis (horseweed) isolate 1 under greenhouse condition at 1.25 kg ae/ha measured 7 days post treatment relative to control; format: functional
[34] = tested on: Erigeron canadensis; assay: Herbicidal activity against compound-resistant Conyza canadensis (horseweed) isolate 1 under greenhouse condition assessed as fresh weight at 0.45 kg ae/ha measured 21 days post treatment relative to untreated control
[35] = tested on: Erigeron canadensis; assay: Herbicidal activity against compound-resistant Conyza canadensis (horseweed) isolate 2 under greenhouse condition at 0.84 kg ae/ha measured 7 days post treatment relative to control; format: functional
[36] = tested on: Erigeron canadensis; assay: Herbicidal activity against compound-resistant Conyza canadensis (horseweed) isolate 1 under greenhouse condition at 3.36 kg ae/ha measured 21 days post treatment relative to control; format: functional

SMILES: O=C(O)CNCP(=O)(O)O [GLYPHOSATE]
- Activity [1]: 14%
- Activity [2]: 13%
- Activity [3]: 50%
- Activity [4]: 13%
- level, % of control [5]: 7%
- Activity [6]: 74%
- Activity [7]: 50%
- Activity [8]: 60%
- Activity [9]: 89%
- level, % of control [10]: 12%
- Activity [11]: 18%
- level, % of control [12]: 1%
- Activity [13]: 11%
- Activity [14]: 90%
- Activity [15]: 83%
- Activity [16]: 73%
- Activity [17]: 11%
- level, % of control [18]: 73%
- Activity [19]: 60%
- level, % of control [20]: 30%
- Activity [21]: 40%
- level, % of control [22]: 94%
- level, % of control [23]: 86%
- Activity [24]: 80%
- Activity [25]: 45%
- Activity [26]: 63%
- Activity [27]: 53%
- Activity [28]: 44%
- Activity [29]: 50%
- level, % of control [30]: 27%
- Activity [31]: 98%
- Activity [32]: 91%
- Activity [33]: 28%
- level, % of control [34]: 99%
- Activity [35]: 23%
- Activity [36]: 75%
